Experiments:
Assay in all cases: Radiolabeled ATP kinase assay, panel of 371 kinases (Table S6)
Type in all cases: biochemical
[1] = target: T1, panel of 371 human kinases (Homo sapiens, UniProt O60285); conditions: ARK5/NUAK1; 0.1 μM; 10 μM ATP; read-out: % Enzyme Activity (relative to DMSO controls)
T1 construct: purchased Reaction Biology Corp
Source text: (§1) ; FIG. 38C). […]. Further targeted analyses, such as genetic knock-down or knock-out, may be warranted to parse the role of these additional kinases in our model of neurodegeneration.

[2] = target: T2, panel of 371 human kinases (Homo sapiens, UniProt O75716); conditions: STK16; 0.1 μM; 10 μM ATP; read-out: % Enzyme Activity (relative to DMSO controls)
T2 construct: purchased Reaction Biology Corp
Source text: as §1

[3] = target: T3, panel of 371 human kinases (Homo sapiens, UniProt P05129); conditions: PKCg; 0.1 μM; 10 μM ATP; read-out: % Enzyme Activity (relative to DMSO controls)
T3 construct: purchased Reaction Biology Corp
Source text: as §1

[4] = target: T4, panel of 371 human kinases (Homo sapiens, UniProt P06241); conditions: FYN; 0.1 μM; 10 μM ATP; read-out: % Enzyme Activity (relative to DMSO controls)
T4 construct: purchased Reaction Biology Corp
Source text: as §1

[5] = target: T5, panel of 371 human kinases (Homo sapiens, UniProt P09619); conditions: PDGFRb; 0.1 μM; 10 μM ATP; read-out: % Enzyme Activity (relative to DMSO controls)
T5 construct: purchased Reaction Biology Corp
Source text: as §1

[6] = target: T6, panel of 371 human kinases (Homo sapiens, UniProt P15056); conditions: BRAF; 0.1 μM; 10 μM ATP; read-out: % Enzyme Activity (relative to DMSO controls)
T6 construct: purchased Reaction Biology Corp
Source text: as §1

[7] = target: T7, panel of 371 human kinases (Homo sapiens, UniProt P21709); conditions: EPHA1; 0.1 μM; 10 μM ATP; read-out: % Enzyme Activity (relative to DMSO controls)
T7 construct: purchased Reaction Biology Corp
Source text: as §1

[8] = target: T8, panel of 371 human kinases (Homo sapiens, UniProt P23443); conditions: p70S6K/RPS6KB1; 0.1 μM; 10 μM ATP; read-out: % Enzyme Activity (relative to DMSO controls)
T8 construct: purchased Reaction Biology Corp
Source text: as §1

[9] = target: T9, panel of 371 human kinases (Homo sapiens, UniProt P29320); conditions: EPHA3; 0.1 μM; 10 μM ATP; read-out: % Enzyme Activity (relative to DMSO controls)
T9 construct: purchased Reaction Biology Corp
Source text: as §1

[10] = target: T10, panel of 371 human kinases (Homo sapiens, UniProt P30530); conditions: AXL; 0.1 μM; 10 μM ATP; read-out: % Enzyme Activity (relative to DMSO controls)
T10 construct: purchased Reaction Biology Corp
Source text: as §1

[11] = target: T11, panel of 371 human kinases (Homo sapiens, UniProt P37173); conditions: TGFBR2; 0.1 μM; 10 μM ATP; read-out: % Enzyme Activity (relative to DMSO controls)
T11 construct: purchased Reaction Biology Corp
Source text: as §1

[12] = target: T12, panel of 371 human kinases (Homo sapiens, UniProt Q13043); conditions: MST1/STK4; 0.1 μM; 10 μM ATP; read-out: % Enzyme Activity (relative to DMSO controls)
T12 construct: purchased Reaction Biology Corp
Source text: as §1

[13] = target: T13, panel of 371 human kinases (Homo sapiens, UniProt Q13177); conditions: PAK2; 0.1 μM; 10 μM ATP; read-out: % Enzyme Activity (relative to DMSO controls)
T13 construct: purchased Reaction Biology Corp
Source text: as §1

[14] = target: T14, panel of 371 human kinases (Homo sapiens, UniProt Q8IW41); conditions: MAPKAPK5/PRAK; 0.1 μM; 10 μM ATP; read-out: % Enzyme Activity (relative to DMSO controls)
T14 construct: purchased Reaction Biology Corp
Source text: as §1

[15] = target: T15, panel of 371 human kinases (Homo sapiens, UniProt Q8WTQ7); conditions: GRK7; 0.1 μM; 10 μM ATP; read-out: % Enzyme Activity (relative to DMSO controls)
T15 construct: purchased Reaction Biology Corp
Source text: as §1

[16] = target: T16, panel of 371 human kinases (Homo sapiens, UniProt Q96RR4); conditions: CAMKK2; 0.1 μM; 10 μM ATP; read-out: % Enzyme Activity (relative to DMSO controls)
T16 construct: purchased Reaction Biology Corp
Source text: as §1

[17] = target: T17, panel of 371 human kinases (Homo sapiens, UniProt Q96SB4); conditions: SRPK1; 0.1 μM; 10 μM ATP; read-out: % Enzyme Activity (relative to DMSO controls)
T17 construct: purchased Reaction Biology Corp
Source text: as §1

[18] = target: T18, panel of 371 human kinases (Homo sapiens, UniProt Q99986); conditions: VRK1; 0.1 μM; 10 μM ATP; read-out: % Enzyme Activity (relative to DMSO controls)
T18 construct: purchased Reaction Biology Corp
Source text: as §1

[19] = target: T19, panel of 371 human kinases (Homo sapiens, UniProt Q9BWU1); conditions: CDK19/cyclin C; 0.1 μM; 10 μM ATP; read-out: % Enzyme Activity (relative to DMSO controls)
T19 construct: purchased Reaction Biology Corp
Source text: as §1

[20] = target: T20, panel of 371 human kinases (Homo sapiens, UniProt Q9BZL6); conditions: PKD2/PRKD2; 0.1 μM; 10 μM ATP; read-out: % Enzyme Activity (relative to DMSO controls)
T20 construct: purchased Reaction Biology Corp
Source text: as §1

[21] = target: T21, panel of 371 human kinases (Homo sapiens, UniProt Q9UEW8); conditions: STK39/STLK3; 0.1 μM; 10 μM ATP; read-out: % Enzyme Activity (relative to DMSO controls)
T21 construct: purchased Reaction Biology Corp
Source text: as §1

[22] = target: T22, panel of 371 human kinases (Homo sapiens, UniProt Q9UIK4); conditions: DAPK2; 0.1 μM; 10 μM ATP; read-out: % Enzyme Activity (relative to DMSO controls)
T22 construct: purchased Reaction Biology Corp
Source text: as §1

[23] = target: T23, panel of 371 human kinases (Homo sapiens, UniProt Q9Y2U5); conditions: MEKK2; 0.1 μM; 10 μM ATP; read-out: % Enzyme Activity (relative to DMSO controls)
T23 construct: purchased Reaction Biology Corp
Source text: as §1

[24] = target: T24, panel of 371 human kinases (Homo sapiens, UniProt Q9Y6M4); conditions: CK1g3; 0.1 μM; 10 μM ATP; read-out: % Enzyme Activity (relative to DMSO controls)
T24 construct: purchased Reaction Biology Corp
Source text: as §1

T13 sequence (Q13177 whole entry): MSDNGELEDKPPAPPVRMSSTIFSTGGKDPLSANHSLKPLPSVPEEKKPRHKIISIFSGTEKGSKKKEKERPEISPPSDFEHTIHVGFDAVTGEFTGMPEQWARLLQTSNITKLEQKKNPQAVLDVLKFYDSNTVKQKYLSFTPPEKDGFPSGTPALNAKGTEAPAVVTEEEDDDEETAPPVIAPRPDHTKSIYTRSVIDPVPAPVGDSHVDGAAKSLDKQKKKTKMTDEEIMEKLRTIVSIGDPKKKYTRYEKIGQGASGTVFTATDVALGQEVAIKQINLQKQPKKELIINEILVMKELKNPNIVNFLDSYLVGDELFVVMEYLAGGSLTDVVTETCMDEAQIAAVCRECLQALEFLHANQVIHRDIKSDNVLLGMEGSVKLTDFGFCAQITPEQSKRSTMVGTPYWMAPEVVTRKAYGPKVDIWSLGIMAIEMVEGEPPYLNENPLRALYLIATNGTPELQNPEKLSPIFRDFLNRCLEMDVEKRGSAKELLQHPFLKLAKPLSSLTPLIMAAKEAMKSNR
T2 sequence (O75716 whole entry): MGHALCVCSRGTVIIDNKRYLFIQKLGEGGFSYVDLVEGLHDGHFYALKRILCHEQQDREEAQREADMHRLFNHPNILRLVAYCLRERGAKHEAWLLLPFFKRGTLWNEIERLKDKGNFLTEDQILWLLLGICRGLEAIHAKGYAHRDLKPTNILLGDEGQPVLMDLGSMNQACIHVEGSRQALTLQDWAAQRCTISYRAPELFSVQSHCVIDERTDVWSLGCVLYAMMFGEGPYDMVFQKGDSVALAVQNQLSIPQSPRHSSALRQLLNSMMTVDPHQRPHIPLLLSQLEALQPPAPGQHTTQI
T18 sequence (Q99986 whole entry): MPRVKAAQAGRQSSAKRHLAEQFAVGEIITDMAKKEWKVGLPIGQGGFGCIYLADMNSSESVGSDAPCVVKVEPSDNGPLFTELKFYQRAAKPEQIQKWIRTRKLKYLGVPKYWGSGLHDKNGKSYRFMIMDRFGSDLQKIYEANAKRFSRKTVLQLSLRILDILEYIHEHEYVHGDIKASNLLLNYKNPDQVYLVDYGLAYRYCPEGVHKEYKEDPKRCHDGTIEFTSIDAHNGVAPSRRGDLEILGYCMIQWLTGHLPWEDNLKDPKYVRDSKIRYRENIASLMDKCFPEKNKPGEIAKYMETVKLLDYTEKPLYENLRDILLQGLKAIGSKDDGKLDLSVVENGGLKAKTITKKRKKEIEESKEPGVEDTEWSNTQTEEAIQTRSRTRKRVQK
T20 sequence (Q9BZL6 whole entry): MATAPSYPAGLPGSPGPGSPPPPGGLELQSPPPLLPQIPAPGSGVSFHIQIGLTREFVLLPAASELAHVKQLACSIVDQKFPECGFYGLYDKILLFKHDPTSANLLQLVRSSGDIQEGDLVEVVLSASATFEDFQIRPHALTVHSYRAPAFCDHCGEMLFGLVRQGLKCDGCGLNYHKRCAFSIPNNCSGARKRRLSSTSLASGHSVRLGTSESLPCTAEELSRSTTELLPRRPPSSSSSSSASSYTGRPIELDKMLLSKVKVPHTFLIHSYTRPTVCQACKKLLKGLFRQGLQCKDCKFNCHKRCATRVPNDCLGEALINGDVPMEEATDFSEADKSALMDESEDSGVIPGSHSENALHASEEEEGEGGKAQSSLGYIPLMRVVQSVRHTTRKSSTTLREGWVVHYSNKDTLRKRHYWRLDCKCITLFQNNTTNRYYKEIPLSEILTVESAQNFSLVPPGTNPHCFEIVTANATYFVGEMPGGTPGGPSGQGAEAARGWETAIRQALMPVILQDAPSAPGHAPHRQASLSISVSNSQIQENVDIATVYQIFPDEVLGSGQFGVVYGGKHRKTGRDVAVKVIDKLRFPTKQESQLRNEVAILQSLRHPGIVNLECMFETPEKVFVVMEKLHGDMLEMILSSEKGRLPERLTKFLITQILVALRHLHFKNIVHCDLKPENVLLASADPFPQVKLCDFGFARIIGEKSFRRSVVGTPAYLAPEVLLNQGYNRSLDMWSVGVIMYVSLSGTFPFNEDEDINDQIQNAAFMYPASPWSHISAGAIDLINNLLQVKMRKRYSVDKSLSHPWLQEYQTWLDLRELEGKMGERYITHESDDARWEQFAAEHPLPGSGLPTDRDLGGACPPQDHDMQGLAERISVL
T15 sequence (Q8WTQ7 whole entry): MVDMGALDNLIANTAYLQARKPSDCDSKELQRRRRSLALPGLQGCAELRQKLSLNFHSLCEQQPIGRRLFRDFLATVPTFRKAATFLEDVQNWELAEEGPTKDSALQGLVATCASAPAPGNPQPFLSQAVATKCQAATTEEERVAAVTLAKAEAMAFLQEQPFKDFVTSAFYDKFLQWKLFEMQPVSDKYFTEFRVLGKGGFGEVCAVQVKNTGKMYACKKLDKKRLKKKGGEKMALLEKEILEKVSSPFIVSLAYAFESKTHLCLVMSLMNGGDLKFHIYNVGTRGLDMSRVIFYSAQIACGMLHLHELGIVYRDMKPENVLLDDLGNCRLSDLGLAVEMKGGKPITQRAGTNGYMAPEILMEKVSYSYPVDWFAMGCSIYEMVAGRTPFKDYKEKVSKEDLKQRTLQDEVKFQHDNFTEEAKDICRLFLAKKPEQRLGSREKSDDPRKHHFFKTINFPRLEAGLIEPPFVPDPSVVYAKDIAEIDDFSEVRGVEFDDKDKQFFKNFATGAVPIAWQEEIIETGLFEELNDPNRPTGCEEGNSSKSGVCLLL
T16 sequence (Q96RR4 whole entry): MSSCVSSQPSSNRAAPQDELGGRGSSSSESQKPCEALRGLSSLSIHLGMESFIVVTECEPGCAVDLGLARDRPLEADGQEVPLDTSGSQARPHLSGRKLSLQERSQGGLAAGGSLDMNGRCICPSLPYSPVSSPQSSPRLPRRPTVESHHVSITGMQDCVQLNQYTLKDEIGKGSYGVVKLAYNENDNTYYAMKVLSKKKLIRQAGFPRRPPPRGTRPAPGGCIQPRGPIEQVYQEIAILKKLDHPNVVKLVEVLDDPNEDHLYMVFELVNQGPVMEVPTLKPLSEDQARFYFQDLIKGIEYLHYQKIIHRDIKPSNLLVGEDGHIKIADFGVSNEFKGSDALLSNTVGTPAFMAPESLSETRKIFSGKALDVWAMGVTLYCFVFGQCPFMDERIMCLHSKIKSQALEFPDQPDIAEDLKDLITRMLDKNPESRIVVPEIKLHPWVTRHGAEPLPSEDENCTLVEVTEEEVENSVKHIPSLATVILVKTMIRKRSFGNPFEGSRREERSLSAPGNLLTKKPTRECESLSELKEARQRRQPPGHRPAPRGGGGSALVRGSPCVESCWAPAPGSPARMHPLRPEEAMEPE
T11 sequence (P37173 23-567): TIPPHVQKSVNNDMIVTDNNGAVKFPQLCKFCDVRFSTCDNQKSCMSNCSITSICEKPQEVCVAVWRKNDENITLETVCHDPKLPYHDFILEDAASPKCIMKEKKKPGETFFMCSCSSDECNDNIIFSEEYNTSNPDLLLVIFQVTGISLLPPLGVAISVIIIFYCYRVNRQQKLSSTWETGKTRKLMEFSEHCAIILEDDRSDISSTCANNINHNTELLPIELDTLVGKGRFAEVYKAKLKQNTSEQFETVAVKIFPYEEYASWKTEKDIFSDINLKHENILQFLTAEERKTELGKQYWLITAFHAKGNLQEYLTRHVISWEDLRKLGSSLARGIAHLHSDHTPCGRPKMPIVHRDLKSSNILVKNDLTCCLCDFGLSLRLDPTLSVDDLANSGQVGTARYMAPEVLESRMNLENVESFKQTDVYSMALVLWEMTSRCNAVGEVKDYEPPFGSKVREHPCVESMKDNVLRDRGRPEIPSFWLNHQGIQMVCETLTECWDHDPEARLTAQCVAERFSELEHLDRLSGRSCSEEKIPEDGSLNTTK
T24 sequence (Q9Y6M4 whole entry): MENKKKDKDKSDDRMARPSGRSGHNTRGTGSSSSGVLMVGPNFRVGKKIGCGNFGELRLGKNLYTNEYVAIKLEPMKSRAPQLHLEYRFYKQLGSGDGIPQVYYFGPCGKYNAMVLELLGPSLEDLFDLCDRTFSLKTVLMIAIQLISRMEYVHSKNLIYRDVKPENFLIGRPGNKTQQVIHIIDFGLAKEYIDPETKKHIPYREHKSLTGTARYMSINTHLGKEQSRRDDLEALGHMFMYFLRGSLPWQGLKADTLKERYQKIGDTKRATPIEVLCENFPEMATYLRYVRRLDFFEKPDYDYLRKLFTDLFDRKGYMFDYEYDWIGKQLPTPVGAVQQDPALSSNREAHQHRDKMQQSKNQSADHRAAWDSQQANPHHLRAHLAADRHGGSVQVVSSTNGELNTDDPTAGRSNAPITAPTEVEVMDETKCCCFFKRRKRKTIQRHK

Compound | remaining activity at 0.1 µM [1] [%] | remaining activity at 0.1 µM [2] [%] | remaining activity at 0.1 µM [3] [%] | remaining activity at 0.1 µM [4] [%] | remaining activity at 0.1 µM [5] [%] | remaining activity at 0.1 µM [6] [%] | remaining activity at 0.1 µM [7] [%] | remaining activity at 0.1 µM [8] [%] | remaining activity at 0.1 µM [9] [%] | remaining activity at 0.1 µM [10] [%] | remaining activity at 0.1 µM [11] [%] | remaining activity at 0.1 µM [12] [%] | remaining activity at 0.1 µM [13] [%] | remaining activity at 0.1 µM [14] [%] | remaining activity at 0.1 µM [15] [%] | remaining activity at 0.1 µM [16] [%] | remaining activity at 0.1 µM [17] [%] | remaining activity at 0.1 µM [18] [%] | remaining activity at 0.1 µM [19] [%] | remaining activity at 0.1 µM [20] [%] | further results
CN1CCN(Cc2ccc(-c3cnc4[nH]cc(-c5ccc6[nH]ccc6c5)c4c3)cc2)CC1 [Compound 1, 3-(1H-Indol-5-yl)-5-(4-((4-methylpiperazin-1-yl)methyl)phenyl)-1H-pyrrolo[2,3-b]pyridine, reference compound] | 26.9 | 100 | 89 | 92.1 | 94.2 | 105 | 74.2 | 93.2 | 99.8 | 35.8 | 106 | 80 | 97.1 | 78.5 | 101 | 97.7 | 104 | 95.8 | 94.9 | 23.2 | remaining activity at 0.1 µM [21]: 90.7%; remaining activity at 0.1 µM [22]: 118%; remaining activity at 0.1 µM [23]: 102%; remaining activity at 0.1 µM [24]: 92.2%
OCCN1CCN(Cc2ccc(-c3cnc4[nH]cc(-c5cccc(Cl)c5)c4c3)cc2)CC1 [Compound 12k, 2-(4-(4-(3-(3-Chlorophenyl)-1H-pyrrolo[2,3-b]pyridin-5-yl)benzyl)piperazin-1-yl)ethan-1-ol] | 14.4 | 109 | 106 | 96.3 | 96.3 | 98 | 89.4 | 99.3 | 98.2 | 39.8 | 88 | 75.9 | 85 | 84.4 | 97.1 | 94.9 | 100 | 88.3 | 64.8 | 9.36 | remaining activity at 0.1 µM [21]: 77.3%; remaining activity at 0.1 µM [22]: 105%; remaining activity at 0.1 µM [23]: 93.3%; remaining activity at 0.1 µM [24]: 92.4%

Source: patent US12227500B2, “Substituted pyrrolo[2,3-b]pyridines for suppressing toxic endoplasmic reticulum stress” (THE TRUSTEES OF COLUMBIA UNIVERSITY IN THE CITY OF NEW YORK, priority 2018, dated 2025)
